Experiments:
Format in all cases: in vivo
Settings in all cases: treatment dosage 320 g/ha
redroot pigweed [1] = test: Test Example 3: weedkilling efficacy through soil treatment; L: redroot pigweed
How it was run: (§1)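 Crop and weed responses were judged three weeks after a uniform surface spray of the water-diluted emulsion at the given g/ha rate. Seeds sat beneath about 1.5 cm of sterilized diluvial soil, and boxes stood in a greenhouse at 25 to 30° C.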

rapeseed [2] = test: Test Example 3: soil treatment, effect on crop; g: rapeseed
How it was run: as §1

birds-eye speedwell [3] = test: Test Example 3: weedkilling efficacy through soil treatment; p: birds-eye speedwell
How it was run: as §1

wheat [4] = test: Test Example 4: foliar treatment, effect on crop; e: wheat
How it was run: (§2)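 Seeds are spot-sown into sterilized diluvial soil and covered with about 1.5 cm of soil. After 14 days' greenhouse growth at 25 to 30° C, plants are sprayed on stems and leaves with diluted emulsion at the stated g/ha rate, then scored at 3 weeks.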

barnyard grass [5] = test: Test Example 4: weedkilling efficacy by foliar treatment; F: barnyard grass
How it was run: as §2

corn [6] = test: Test Example 3: soil treatment, effect on crop; c: corn
How it was run: as §1

birds-eye speedwell [7] = test: Test Example 4: weedkilling efficacy by foliar treatment; p: birds-eye speedwell
How it was run: as §2

catchweed [8] = test: Test Example 4: weedkilling efficacy by foliar treatment; O: catchweed
How it was run: as §2

soybean [9] = test: Test Example 4: foliar treatment, effect on crop; d: soybean
How it was run: as §2

crabgrass [10] = test: Test Example 4: weedkilling efficacy by foliar treatment; D: crabgrass
How it was run: as §2

wheat [11] = test: Test Example 3: soil treatment, effect on crop; e: wheat
How it was run: as §1

barnyard grass [12] = test: Test Example 1: weedkilling efficacy, preemergent weed treatment in the submerged state; A: barnyard grass
How it was run: (§3)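 Pots of alluvial soil were flooded to a 4 cm depth. Mixed weed seeds were sown and 2.5 leaf-stage rice seedlings transplanted. On sowing day, water-diluted emulsion was applied to the water surface (dose in g/ha). After 3 weeks at 25–30 °C, effects were rated.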

black-grass [13] = test: Test Example 4: weedkilling efficacy by foliar treatment; H: black-grass
How it was run: as §2

chickweed [14] = test: Test Example 3: weedkilling efficacy through soil treatment; N: chickweed
How it was run: as §1

catchweed [15] = test: Test Example 3: weedkilling efficacy through soil treatment; O: catchweed
How it was run: as §1

wild oat [16] = test: Test Example 3: weedkilling efficacy through soil treatment; G: wild oat
How it was run: as §1

rapeseed [17] = test: Test Example 4: foliar treatment, effect on crop; g: rapeseed
How it was run: as §2

fig-leafed goosefoot = test: Test Example 3: weedkilling efficacy through soil treatment; M: fig-leafed goosefoot
How it was run: as §1

barnyard grass [18] = test: Test Example 2: weedkilling efficacy, growth period weed treatment in the submerged state; A: barnyard grass
How it was run: (§4)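 Weeds treated at the 1-2 leaf stage by application of diluted emulsion onto floodwater (4 cm depth, alluvial soil) at specified g/ha. Grown in greenhouse at 25 to 30° C; herbicidal effect rated three weeks after treatment.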

Italian ryegrass [19] = test: Test Example 4: weedkilling efficacy by foliar treatment; I: Italian ryegrass
How it was run: as §2

redroot pigweed [20] = test: Test Example 4: weedkilling efficacy by foliar treatment; L: redroot pigweed
How it was run: as §2

beet [21] = test: Test Example 3: soil treatment, effect on crop; f: beet
How it was run: as §1

directly sown rice [22] = test: Test Example 3: soil treatment, effect on crop; b: directly sown rice
How it was run: as §1

oval-leafed pondweed [23] = test: Test Example 2: weedkilling efficacy, growth period weed treatment in the submerged state; C: oval-leafed pondweed
How it was run: as §4

crabgrass [24] = test: Test Example 3: weedkilling efficacy through soil treatment; D: crabgrass
How it was run: as §1

green foxtail [25] = test: Test Example 4: weedkilling efficacy by foliar treatment; E: green foxtail
How it was run: as §2

chickweed [26] = test: Test Example 4: weedkilling efficacy by foliar treatment; N: chickweed
How it was run: as §2

green foxtail [27] = test: Test Example 3: weedkilling efficacy through soil treatment; E: green foxtail
How it was run: as §1

bulrush [28] = test: Test Example 2: weedkilling efficacy, growth period weed treatment in the submerged state; B: bulrush
How it was run: as §4

Italian ryegrass [29] = test: Test Example 3: weedkilling efficacy through soil treatment; I: Italian ryegrass
How it was run: as §1

directly sown rice [30] = test: Test Example 4: foliar treatment, effect on crop; b: directly sown rice
How it was run: as §2

transplanted rice = test: Test Example 1: preemergent weed treatment in the submerged state, effect on crop; a: transplanted rice
How it was run: as §3

wild oat [31] = test: Test Example 4: weedkilling efficacy by foliar treatment; G: wild oat
How it was run: as §2

beet [32] = test: Test Example 4: foliar treatment, effect on crop; f: beet
How it was run: as §2

soybean [33] = test: Test Example 3: soil treatment, effect on crop; d: soybean
How it was run: as §1

barnyard grass [34] = test: Test Example 3: weedkilling efficacy through soil treatment; F: barnyard grass
How it was run: as §1

corn [35] = test: Test Example 4: foliar treatment, effect on crop; c: corn
How it was run: as §2

common wind-grass [36] = test: Test Example 4: weedkilling efficacy by foliar treatment; J: common wind-grass
How it was run: as §2

Indian mallow [37] = test: Test Example 3: weedkilling efficacy through soil treatment; K: Indian mallow
How it was run: as §1

common wind-grass [38] = test: Test Example 3: weedkilling efficacy through soil treatment; J: common wind-grass
How it was run: as §1

black-grass [39] = test: Test Example 3: weedkilling efficacy through soil treatment; H: black-grass
How it was run: as §1

Indian mallow [40] = test: Test Example 4: weedkilling efficacy by foliar treatment; K: Indian mallow
How it was run: as §2

bulrush [41] = test: Test Example 1: weedkilling efficacy, preemergent weed treatment in the submerged state; B: bulrush
How it was run: as §3

oval-leafed pondweed [42] = test: Test Example 1: weedkilling efficacy, preemergent weed treatment in the submerged state; C: oval-leafed pondweed
How it was run: as §3

## CC1=C(c2ccccc2)C(=O)N(C(C)(C)C(=O)Nc2cccc(CF)n2)CO1 [B-2-56]
Redroot pigweed [1]
  L (redroot pigweed) weedkilling efficacy grade: 2 (weed kill ratio 20% or more, less than 40%)
Rapeseed [2]
  g (rapeseed) effect on crop grade: 1 (weed kill ratio 5% or more, less than 20%)
birds-eye speedwell [3]
  P (birds-eye speedwell) weedkilling efficacy grade: 5 (weed kill ratio 90% or more, (practically complete withering))
Wheat [4]
  e (wheat) effect on crop grade: 3 (weed kill ratio 40% or more, less than 70%)
Barnyard grass [5]
  F (barnyard grass) weedkilling efficacy grade: 4 (weed kill ratio 70% or more, less than 90%)
Corn [6]
  c (corn) effect on crop grade: 1 (weed kill ratio 5% or more, less than 20%)
birds-eye speedwell [7]
  P (birds-eye speedwell) weedkilling efficacy grade: 4 (weed kill ratio 70% or more, less than 90%)
Catchweed [8]
  O (catchweed) weedkilling efficacy grade: 4 (weed kill ratio 70% or more, less than 90%)
Soybean [9]
  d (soybean) effect on crop grade: 4 (weed kill ratio 70% or more, less than 90%)
Crabgrass [10]
  D (crabgrass) weedkilling efficacy grade: 5 (weed kill ratio 90% or more, (practically complete withering))
Wheat [11]
  e (wheat) effect on crop grade: 1 (weed kill ratio 5% or more, less than 20%)
Barnyard grass [12]
  A (barnyard grass) weedkilling efficacy grade: 5 (weed kill ratio 90% or more, (practically complete withering))
black-grass [13]
  H (black-grass) weedkilling efficacy grade: 4 (weed kill ratio 70% or more, less than 90%)
Chickweed [14]
  N (chickweed) weedkilling efficacy grade: 4 (weed kill ratio 70% or more, less than 90%)
Catchweed [15]
  O (catchweed) weedkilling efficacy grade: 5 (weed kill ratio 90% or more, (practically complete withering))
Wild oat [16]
  G (wild oat) weedkilling efficacy grade: 3 (weed kill ratio 40% or more, less than 70%)
Rapeseed [17]
  g (rapeseed) effect on crop grade: 3 (weed kill ratio 40% or more, less than 70%)
fig-leafed goosefoot
  M (fig-leafed goosefoot) weedkilling efficacy grade: 4 (weed kill ratio 70% or more, less than 90%)
Barnyard grass [18]
  A (barnyard grass) weedkilling efficacy grade: 5 (weed kill ratio 90% or more, (practically complete withering))
Italian ryegrass [19]
  I (Italian ryegrass) weedkilling efficacy grade: 5 (weed kill ratio 90% or more, (practically complete withering))
Redroot pigweed [20]
  L (redroot pigweed) weedkilling efficacy grade: 3 (weed kill ratio 40% or more, less than 70%)
Beet [21]
  f (beet) effect on crop grade: 2 (weed kill ratio 20% or more, less than 40%)
Directly sown rice [22]
  b (directly sown rice) effect on crop grade: 2 (weed kill ratio 20% or more, less than 40%)
oval-leafed pondweed [23]
  C (oval-leafed pondweed) weedkilling efficacy grade: 5 (weed kill ratio 90% or more, (practically complete withering))
Crabgrass [24]
  D (crabgrass) weedkilling efficacy grade: 5 (weed kill ratio 90% or more, (practically complete withering))
Green foxtail [25]
  E (green foxtail) weedkilling efficacy grade: 5 (weed kill ratio 90% or more, (practically complete withering))
Chickweed [26]
  N (chickweed) weedkilling efficacy grade: 4 (weed kill ratio 70% or more, less than 90%)
Green foxtail [27]
  E (green foxtail) weedkilling efficacy grade: 5 (weed kill ratio 90% or more, (practically complete withering))
Bulrush [28]
  B (bulrush) weedkilling efficacy grade: 5 (weed kill ratio 90% or more, (practically complete withering))
Italian ryegrass [29]
  I (Italian ryegrass) weedkilling efficacy grade: 5 (weed kill ratio 90% or more, (practically complete withering))
Directly sown rice [30]
  b (directly sown rice) effect on crop grade: 4 (weed kill ratio 70% or more, less than 90%)
Transplanted rice
  a (transplanted rice) effect on crop grade: 1 (weed kill ratio 5% or more, less than 20%)
Wild oat [31]
  G (wild oat) weedkilling efficacy grade: 5 (weed kill ratio 90% or more, (practically complete withering))
Beet [32]
  f (beet) effect on crop grade: 3 (weed kill ratio 40% or more, less than 70%)
Soybean [33]
  d (soybean) effect on crop grade: 0 (weed kill ratio 5% or less (practically no effect))
Barnyard grass [34]
  F (barnyard grass) weedkilling efficacy grade: 5 (weed kill ratio 90% or more, (practically complete withering))
Corn [35]
  c (corn) effect on crop grade: 5 (weed kill ratio 90% or more, (practically complete withering))
Common wind-grass [36]
  J (common wind-grass) weedkilling efficacy grade: 5 (weed kill ratio 90% or more, (practically complete withering))
Indian mallow [37]
  K (Indian mallow) weedkilling efficacy grade: 0 (weed kill ratio 5% or less (practically no effect))
Common wind-grass [38]
  J (common wind-grass) weedkilling efficacy grade: 5 (weed kill ratio 90% or more, (practically complete withering))
black-grass [39]
  H (black-grass) weedkilling efficacy grade: 5 (weed kill ratio 90% or more, (practically complete withering))
Indian mallow [40]
  K (Indian mallow) weedkilling efficacy grade: 0 (weed kill ratio 5% or less (practically no effect))
Bulrush [41]
  B (bulrush) weedkilling efficacy grade: 5 (weed kill ratio 90% or more, (practically complete withering))
oval-leafed pondweed [42]
  C (oval-leafed pondweed) weedkilling efficacy grade: 5 (weed kill ratio 90% or more, (practically complete withering))

From patent US9738634B2, “Heterocyclic amide compound and herbicide” (SYNGENTA PARTICIPATIONS AG, priority 2013, dated 2017)
